Series [1] in a line: LogP by HPLC on reversed phase columns (EEC directive 79/831 Annex V.A8). Type of series: physicochemical. Conditions: reversed phase HPLC column, method [a]: LC-UV, acidic range, 0.1% formic acid in water and acetonitrile as eluent. As to the method: Measurement of LogP values was performed according to EEC directive 79/831 Annex V.A8 by HPLC (High Performance Liquid Chromatography) on reversed phase columns with the following methods: • ^[a] […] Lambda-max-values were determined using UV-spectra from 200 nm to 400 nm and the peak values of the chromatographic signals.

Another series has as its system Puccinia recondita. Description: Example A: in vivo preventive test on Puccinia recondita (brown rust on wheat). The conditions noted are these: 264 h, 500 ppm of active ingredient, preventive spray, evaluated 11 days after inoculation, read-out: efficacy. On the procedure:
(§1) The test is evaluated 11 days after the inoculation.

In series [2] the test system is Sphaerotheca fuliginea. In words: Example C: in vivo preventive test on Sphaerotheca fuliginea (powdery mildew on cucurbits). Conditions: Podosphaera fuliginea, 360 h; 500 ppm of active ingredient; gherkin; preventive spray; evaluated 15 days after inoculation; read-out: efficacy. On the procedure:
The test is evaluated 15 days after the inoculation.

The test system of a further series is Uromyces appendiculatus. Description: Example D: in vivo preventive test on Uromyces appendiculatus (bean rust). The conditions noted are these: 264 h, 500 ppm of active ingredient, preventive spray, evaluated 11 days after inoculation, read-out: efficacy. On the procedure:
as §1

For series [3], the system named is Blumeria graminis f sp. hordei. Description: Example E: in vivo preventive Blumeria test (barley). The conditions noted are these: 168 h, 500 ppm of active ingredient, preventive spray, evaluated 7 days after inoculation, read-out: efficacy. On the procedure: • Solvent: 49 parts by weight of N,N-dimethylacetamide • Emulsifier: 1 part by weight of alkylaryl polyglycol ether To produce a suitable preparation of active compound, 1 part by weight of active compound or active compound combination was mixed with the stated amounts of solvent and emulsifier, and the concentrate was diluted with water to the desired concentration. To test for preventive activity, young plants were sprayed with the preparation of active compound or active compound combination at the stated rate of application. After the spray coating had been dried, the plants were dusted with spores of Blumeria graminis f sp. hordei. The plants were placed in the greenhouse at a temperature of approximately 18° C. and a relative atmospheric humidity of approximately 80% to promote the development of mildew pustules. The test was evaluated 7 days after the inoculation.

The test system of a further series is Septoria tritici. Description: Example G: in vivo 5 days preventive Septoria tritici test (wheat), comparison vs. WO-A 2010/146116. Conditions: inoculated 5 days after spraying, evaluated 21 days after inoculation. As to the method:
• Solvent: 49 parts by weight of N,N-dimethylacetamide • Emulsifier: 1 part by weight of alkylaryl polyglycol ether To produce a suitable preparation of active compound, 1 part by weight of active compound or active compound combination is mixed with the stated amounts of solvent and emulsifier, and the concentrate is diluted with water to the desired concentration. To test for preventive and long-lasting activity, young plants are sprayed with a preparation of active compound or active compound combination at the stated rate of application. After the spray coating has been dried, the plants are placed in the greenhouse at a temperature of approximately 15° C. and a relative atmospheric humidity of approximately 80%. 5 days later the plants are sprayed with a spore suspension of Septoria tritici. The plants remain for 48 hours in an incubation cabinet at approximately 20° C. and a relative atmospheric humidity of approximately 100% and afterwards for 60 hours at approximately 15° C. in a translucent incubation cabinet at a relative atmospheric humidity of approximately 100%. Then the plants are placed in the greenhouse at a temperature of approximately 15° C. and a relative atmospheric humidity of approximately 80%. The test is evaluated 21 days after the inoculation.

Series [4] concerns Sphaerotheca fuliginea. Description: Example H: in vivo preventive test on Sphaerotheca (cucumbers), comparison vs. WO-A 2010/146116. Conditions: evaluated 7 days after inoculation. As to the method: To produce a suitable preparation of active compound, 1 part by weight of active compound is mixed with the stated amounts of solvent and emulsifier, and the concentrate is diluted with water to the desired concentration. To test for preventive activity, young plants are sprayed with the preparation of active compound at the stated rate of application. After the spray coating has dried on, the plants are inoculated with an aqueous spore suspension of Sphaerotheca fuliginea. The plants are then placed in a greenhouse at approximately 23° C. and a relative atmospheric humidity of approximately 70%. The test is evaluated 7 days after the inoculation.

For series [5], the system named is Sphaerotheca fuliginea. Description: Example F: in vivo preventive test on Sphaerotheca (cucumbers), comparison vs. known phenoxy-phenyl compounds. The conditions noted are these: rate of application 10 ppm, evaluated 7 days after inoculation. On the procedure:
• Solvent: 24.5 parts by weight of acetone • 24.5 parts by weight of dimethylacetamide • Emulsifier: 1 part by weight of alkylaryl polyglycol ether
To produce a suitable preparation of active compound, 1 part by weight of active compound is mixed with the above stated amounts of solvent and emulsifier, and the concentrate is diluted with water to the desired concentration.
To test for preventive activity, young plants are sprayed with the preparation of active compound at the stated rate of application. After the spray coating has dried on, the plants are inoculated with an aqueous spore suspension of Sphaerotheca fuliginea. The plants are then placed in a greenhouse at approximately 23° C. and a relative atmospheric humidity of approximately 70%.
The test is evaluated 7 days after the inoculation.

We go through 3 molecules from US20190211002A1, “NOVEL TRIAZOLE DERIVATIVES” (Bayer CropScience Aktiengesellschaft, priority 2016, published 2019).

For orientation: chromatographic logP means a lipophilicity value derived from retention on a column. The low end stands for a more hydrophilic compound, the high end for a more lipophilic compound. `FC(F)(F)c1ccc(Oc2ccc(C3(Cn4cncn4)OCCO3)c(C(F)(F)F)n2)cc1` [I.14, 3-[2-(1,2,4-triazol-1-ylmethyl)-1,3-dioxolan-2-yl]-2-(trifluoromethyl)-6-[4-(trifluoromethyl)phenoxy]pyridine] yielded a chromatographic logP in series [1] of 3.29. For the same molecule, the pest or weed control at 500 ppm (in the series with Puccinia recondita; in the series with Sphaerotheca fuliginea [2]; in the series on Uromyces appendiculatus; in series [3]) was 90 to 100% throughout. Also, the Efficacy in % in the series on Septoria tritici (rate of application 100 ppm) was 100%; with Septoria tritici (rate of application 500 ppm), 100%; with Sphaerotheca fuliginea [4] (rate of application 10 ppm), 75%; with Sphaerotheca fuliginea [4] (rate of application 100 ppm), 100%.
For the molecule `FC(F)(F)c1nc(Oc2ccc(Cl)cc2)ccc1C1(Cn2cncn2)OCCO1` [I.04, 6-(4-chlorophenoxy)-3-[2-(1,2,4-triazol-1-ylmethyl)-1,3-dioxolan-2-yl]-2-(trifluoromethyl)-pyridine], the chromatographic logP in series [1] is 3.25. Also, the pest or weed control at 500 ppm (with Puccinia recondita; in the series with Sphaerotheca fuliginea [2]; in the series with Uromyces appendiculatus; in series [3]) was 90 to 100% each time. The Efficacy in % was 73% in the series with Sphaerotheca fuliginea [5]; 86% in the series with Septoria tritici (rate of application 100 ppm); 100% in the series with Septoria tritici (rate of application 500 ppm); 73% with Sphaerotheca fuliginea [4] (rate of application 10 ppm); 100% in the series with Sphaerotheca fuliginea [4] (rate of application 100 ppm).
Regarding `CC(O)(Cn1cncn1)c1ccc(Oc2ccc(Cl)cc2)cc1C(F)(F)F` (centres unmarked) [reference compound], in the series with Sphaerotheca fuliginea [5], the Efficacy in % turned out to be 30%.
